In US10335378B2, “Inhibition of central nervous system effects from smoking and sensory effects from smoking” (Altria Client Services LLC, priority 2013, dated 2019):
“Also recorded” adds a separate entry of the source.

How the values were obtained:
[1] = test system: nicotinic acetylcholine receptors; test: Nicotine-induced CGRP release in buccal mucosa tissue samples; type: cell-based, mouse
Text: Active ingredients appropriate for use in embodiments described herein may also include isoborneol.

[2] = molecular target: T1, TRPA1 channel (Mus musculus, UniProt Q8BLA8); test: TRPA1 irritant-stimulated iCGRP release in tracheal tissue samples; type: cell-based; design: formalin-stimulated GCRP release in both skin and tracheal tissue samples; from tissue; host or cells: skin and tracheal tissue samples; conditions: tracheal tissue samples with TRPA1 channel irritants; FIG. 9
T1 sequence (Q8BLA8 whole entry): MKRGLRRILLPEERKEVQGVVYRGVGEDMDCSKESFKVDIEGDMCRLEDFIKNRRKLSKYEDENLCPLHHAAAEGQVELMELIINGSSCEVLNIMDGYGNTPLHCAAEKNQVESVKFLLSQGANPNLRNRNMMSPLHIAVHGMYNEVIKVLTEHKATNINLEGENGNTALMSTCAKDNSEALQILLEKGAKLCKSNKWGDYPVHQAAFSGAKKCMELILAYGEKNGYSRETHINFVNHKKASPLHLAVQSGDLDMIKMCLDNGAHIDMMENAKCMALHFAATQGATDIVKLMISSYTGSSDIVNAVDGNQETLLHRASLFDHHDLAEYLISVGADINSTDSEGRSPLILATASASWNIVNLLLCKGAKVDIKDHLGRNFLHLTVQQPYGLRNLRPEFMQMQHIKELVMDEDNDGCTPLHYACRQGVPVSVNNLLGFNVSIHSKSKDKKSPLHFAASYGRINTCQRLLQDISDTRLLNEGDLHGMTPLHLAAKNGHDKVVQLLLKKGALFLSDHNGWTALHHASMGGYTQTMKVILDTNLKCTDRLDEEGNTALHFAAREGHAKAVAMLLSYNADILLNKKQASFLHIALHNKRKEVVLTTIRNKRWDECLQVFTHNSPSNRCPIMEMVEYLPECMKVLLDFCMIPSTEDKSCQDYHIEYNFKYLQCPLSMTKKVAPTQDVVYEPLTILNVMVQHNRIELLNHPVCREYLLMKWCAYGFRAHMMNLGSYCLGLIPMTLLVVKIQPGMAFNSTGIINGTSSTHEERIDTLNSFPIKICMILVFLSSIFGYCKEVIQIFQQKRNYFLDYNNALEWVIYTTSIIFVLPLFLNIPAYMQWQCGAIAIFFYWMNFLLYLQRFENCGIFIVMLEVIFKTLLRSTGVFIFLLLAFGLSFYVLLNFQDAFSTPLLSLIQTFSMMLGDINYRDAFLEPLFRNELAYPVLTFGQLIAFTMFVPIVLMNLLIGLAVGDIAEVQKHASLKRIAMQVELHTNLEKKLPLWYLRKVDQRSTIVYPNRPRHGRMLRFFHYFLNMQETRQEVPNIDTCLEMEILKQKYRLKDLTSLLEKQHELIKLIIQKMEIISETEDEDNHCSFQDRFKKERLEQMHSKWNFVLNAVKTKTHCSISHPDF
Protocol: (§1) Similar dosing experiments were performed using formalin, a TRPA1 channel […]. […] (FIG. 8). […] Thus, in some embodiments, active ingredients may be used that inhibit both the nicotinic acetylcholine receptors and the TRPA1 channel. […] (FIG. 9). […] (FIG. 9).

[3] = molecular target: T1, TRPA1 channel; test: Acrolein-induced CGRP release in mouse trachea tissue; type: cell-based; design: CGRP release can be detected in vitro using whole trachea tissue; from tissue; host or cells: mouse trachea; conditions: FIG. 7; for CGRP release versus acrolein alone: trachea samples exposed to acrolein plus test substance
Protocol: (§2) CGRP is a sensory biomarker of neurons that mediate information to the brain. CGRP release can be detected in vitro using whole trachea tissue by exposing the tissue to a stimulatory compound. A standard ELISA assay may then be used to measure the release of CGRP. The active ingredient was tested using a mouse trachea model.
(FIG. 7). […] (FIG. 7). […] (FIG. 7).

[4] = molecular target: T1, TRPA1 channel; test: Formalin-stimulated CGRP release in skin and tracheal tissue samples; type: cell-based; design: formalin-stimulated GCRP release in both skin and tracheal tissue samples; from tissue; host or cells: skin and tracheal tissue samples; conditions: FIG. 8
Protocol: as §1

[5] = test system: nAChR receptor; test: Epibatidine-induced CGRP release in tracheal tissue; type: cell-based, mouse
[6] = test system: tracheal tissue samples; test: Total particulate matter (TPM)-stimulated CGRP release in tracheal tissue samples; type: cell-based; conditions: FIG. 10
Text: To assess the potential of camphor on GCRP release stimulated by cigarette smoking, tracheal tissue samples were exposed to total particulate matter (TPM) containing the same amount of nicotine as in the nicotine alone experiment. […] (FIG. 10). […] (FIG. 10). The results observed in the TPM experiments are similar to those seen in experiments in which nicotine is used alone. (FIG. 10).

[7] = test system: nerve fibers; conditions: isolated mouse trachea model; cited from earlier work
[8] = test system: nAChR receptor; test: Nicotine-induced CGRP release in mouse trachea tissue (ELISA); type: cell-based; conditions: for CGRP release versus nicotine alone: trachea samples exposed to nicotine plus test substance, FIG. 1b; for Maximal nicotinic response (CGRP release, time course): trachea tissue pretreated with nicotine, then enantiomer, FIG. 2
Protocol: as §2
In order to determine whether a specific enantiomer of the active ingredient show greater efficacy, time course experiments were conducted in which trachea tissue samples were pretreated with nicotine and exposed to either the (−) or (+) enantiomer of camphor.
(§3) (FIG. 3a). […] Calcium-imaging experiments were performed on mouse nodose/jugular Ggl neurons with images captures at 340 and 380 nm over time. (FIG. 3b). […] (FIG. 3b). […] (FIG. 3c). […] (FIG. 3c). […] (FIG. 3d).

[9] = test system: TRPV1 channel; test: Heat (45° C.)-induced CGRP release in tracheal samples; type: cell-based, mouse; conditions: FIG. 6; for Heat-induced CGRP release with test substance: 45° C.
[10] = test system: mouse nodose/jugular Ggl neurons; test: Calcium imaging (340 and 380 nm) of nicotine-stimulated neurons; type: cell-based; conditions: FIG. 3b
Protocol: as §3

[11] = test system: acetylcholine receptors; conditions: adrenal gland cells; cited from earlier work
[12] = tracheal samples of TRPV1 knockout mice
[13] = tracheal samples of normal mice

Compound: CC12CCC(CC1=O)C2(C)C (stereo not shown) [camphor]
- CGRP release after nicotine followed by test substance, versus nicotine alone ([1]; buccal mucosa time course, male mice showed stronger inhibition, FIGS. 5a and 5b): CGRP release was significantly lower
- CGRP release with nicotine and camphor ([1]; buccal mucosa, TRPA1/TRPV1 double knockouts, FIG. 4): did not show a significant change in CGRP release
- TRPA1 channel mediated release of iCGRP with camphor [2]: reduce the TRPA1 channel mediated release of iCGRP
- CGRP release versus acrolein alone ([3]; FIG. 1c): decrease in CGRP release; also recorded: marked reduction in CGRP release
- CGRP release in camphor treated samples as acrolein concentration was increased ([3]; versus acrolein only at the same concentration): significantly lower levels of CGRP
- Effect of camphor at high formalin concentrations ([4]; both skin and tracheal tissue samples): could be overcome at high formalin concentrations
- Formalin-stimulated CGRP release with camphor ([4]; skin tissue samples): decrease in formalin-stimulated GCRP release
- Formalin-stimulated CGRP release with camphor ([4]; tracheal tissue samples): decrease in formalin-stimulated GCRP release
- Epibatidine-induced CGRP release with camphor in absence of TRPA1 ([5]; tracheal samples from TRPA1 knockout mice, FIG. 3d): effectively inhibited CGRP release; also recorded: marked reduction in CGRP release
- Epibatidine-induced CGRP release with inhibitor ([5]; tracheal tissue, FIG. 3c): release of CGRP could be inhibited
- TPM-stimulated CGRP release with camphor [6]: largely blocked
- Activation of nerve fibers induced by nicotine [7]: effectively inhibit activation of nerve fibers
- Dose dependence of anti-nicotinic effect (CGRP release) ([8]; mouse trachea, nicotine plus various concentrations of camphor, FIG. 3a): CGRP release was decreased as the concentration of camphor was increased
- CGRP release versus nicotine alone [8]: released less CGRP compared to samples exposed to nicotine alone
- Heat-induced CGRP release with test substance [9, 12]: released comparable levels of CGRP relative to normal samples
- Heat-induced CGRP release with test substance [9, 13]: released comparable levels of CGRP relative to normal samples
- Nicotine-stimulated calcium influx in combination with test substance [10]: not when given in combination with camphor
- Nor-epinephrine release [11]: inhibit nor-epinephrine release from adrenal gland cells

Compound: CCO [ethanol]
- CGRP release in ethanol-treated TRPV1 knockout samples relative to ethanol-treated normal samples ([9]; heat treated tracheal samples): 5 fold less
- Heat-induced CGRP release with test substance [9, 12]: increase in CGRP release relative to untreated TRPV1 knockouts
- Heat-induced CGRP release with test substance [9, 13]: increase CGRP release

Compound: CN1CCCC1c1cccnc1 (stereo not shown) [nicotine]
- CGRP release induced by nicotine alone ([1]; buccal mucosa, TRPA1/TRPV1 double knockout mice, FIG. 4): did not respond to nicotine exposure by releasing similar amounts of CGRP relative to normal mice
- CGRP release induced by nicotine alone ([1]; buccal mucosa, normal C57Bl/6 mice, FIG. 4, FIGS. 5a and 5b): released increased amounts of CGRP; also recorded: increased release of CGRP
- CGRP release induced by the stimulus alone ([8]; mouse trachea, FIG. 1a): induce the release of calcitonin gene-related peptide (CGRP)
- Calcium influx, stimulus alone [10]: stimulated calcium influx in Ggl neurons

Compound: CC(C)c1ccc(NC(=O)Cn2cnc3c2c(=O)n(C)c(=O)n3C)cc1 [HC030031, reference compound]
- CGRP release versus acrolein alone ([3]; FIG. 1c): CGRP release was also reduced
- CGRP release versus nicotine alone [8]: did not show any significant reduction in CGRP release

Compound: CC(C)(C)c1ccc(NC(=O)N2CCN(c3ncccc3Cl)CC2)cc1 [BCTC, reference compound]
- CGRP release versus nicotine alone [8]: did not show any significant reduction in CGRP release

Compound: CC1(C)[C@H]2CC[C@]1(C)C(=O)C2 (single isomer, unassigned) [(−) enantiomer of camphor]
- Maximal nicotinic response (CGRP release, time course) [8]: effective at abolishing the maximal nicotinic response

Compound: CNC1(C)C2CCC(C2)C1(C)C (stereo not shown) [Mecamylanine, reference compound]
- Epibatidine-induced CGRP release with inhibitor ([5]; tracheal tissue, FIG. 3c): release of CGRP could be inhibited

Compound: NCCOB(c1ccccc1)c1ccccc1 [2-APB]
- Heat-induced CGRP release with test substance [9, 13]: increase CGRP release

Compound: CC12CCC(CC1=O)C2(C)C (single isomer, unassigned; (+)) [(+) enantiomer of camphor]
- Maximal nicotinic response (CGRP release, time course) [8]: effective at abolishing the maximal nicotinic response

Compound: Clc1ccc(C2CC3CCC2N3)cn1 (stereo not shown) [epibatidine, reference compound]
- CGRP release induced by the stimulus alone ([5]; tracheal tissue, FIG. 3c): increased release of CGRP

Compound: C=CC=O [acrolein, reference compound]
- CGRP release induced by the stimulus alone ([3]; trachea tissue, various concentrations, FIG. 1c): cause CGRP release at various concentrations; also recorded: released increased amounts of CGRP when exposed to higher concentrations
